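GI50 marks 50% less growth. The concentration for full growth arrest is given as TGI.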
What was measured:
Test in all cases: DTP human tumour cell line panel, 384-well format
[1] = test system: 786-0 renal
[2] = test system: A498 renal
[3] = test system: A549 NSCLC
[4] = test system: ACHN renal
[5] = test system: BT-549 breast
[6] = test system: CAKI-1 renal
[7] = test system: COLO 205 colon
[8] = test system: DU-145 prostate
[9] = test system: EKVX NSCLC
[10] = test system: HCT-116 colon
[11] = test system: HCT-15 colon
[12] = test system: HL-60(TB) leukemia
[13] = test system: HOP-62 NSCLC
[14] = test system: HOP-92 NSCLC
[15] = test system: HS 578T breast
[16] = test system: HT29 colon
[17] = test system: IGROV1 ovarian
[18] = test system: K-562 leukemia
[19] = test system: KM12 colon
[20] = test system: MALME-3M melanoma
[21] = test system: MCF7 breast
[22] = test system: MDA-MB-231 breast
[23] = test system: MDA-MB-435 melanoma
[24] = test system: MDA-MB-468 breast
[25] = test system: MOLT-4 leukemia
[26] = test system: NCI-H226 lung
[27] = test system: NCI-H23 lung
[28] = test system: NCI-H322M lung
[29] = test system: NCI-H460 NSCLC
[30] = test system: NCI-H522 lung
[31] = test system: OVCAR-3 ovarian
[32] = test system: OVCAR-4 ovarian
[33] = test system: OVCAR-5 ovarian
[34] = test system: OVCAR-8 ovarian
[35] = test system: PC-3 prostate
[36] = test system: RXF 393 renal
[37] = test system: SF-268 CNS
[38] = test system: SF-295 CNS
[39] = test system: SF-539 CNS
[40] = test system: SK-MEL-2 melanoma
[41] = test system: SK-MEL-28 melanoma
[42] = test system: SK-MEL-5 melanoma
[43] = test system: SK-OV-3 ovarian
[44] = test system: SN12C renal
[45] = test system: SNB-19 CNS
[46] = test system: SNB-75 CNS
[47] = test system: SR leukemia
[48] = test system: SW-620 colon
[49] = test system: T-47D breast
[50] = test system: TK-10 renal
[51] = test system: U251 glioblastoma
[52] = test system: UACC-257 melanoma
[53] = test system: UACC-62 melanoma
[54] = test system: UO-31 renal

CC[C@@H]1C(=O)N(C)c2cnc(Nc3ccc(C(=O)NC4CCC(N5CCN(CC6CC6)CC5)CC4)cc3OC)nc2N1C(C)C (stereo partly drawn)
GI50 [1]: 90.7 nM | TGI [1]: 1150 nM | GI50 [2]: 69.6 nM | TGI [2]: 1260 nM | GI50 [3]: 41.6 nM | TGI [3]: 1040 nM | GI50 [4]: 89.2 nM | TGI [4]: 1660 nM | GI50 [5]: 19.6 nM | TGI [5]: 159 nM | GI50 [6]: 100 nM | TGI [6]: 1540 nM | GI50 [7]: < 10 nM | TGI [7]: 1310 nM | GI50 [8]: 16.6 nM | TGI [8]: 1200 nM | GI50 [9]: 37.1 nM | TGI [9]: 235 nM | GI50 [10]: < 10 nM | TGI [10]: 1030 nM | GI50 [11]: 35.8 nM | TGI [11]: 549 nM | GI50 [12]: < 10 nM | TGI [12]: < 10 nM | GI50 [13]: 23.3 nM | TGI [13]: 1160 nM | GI50 [14]: 96.9 nM | TGI [14]: 1700 nM | GI50 [15]: 19.5 nM | TGI [15]: 49.7 nM | GI50 [16]: < 10 nM | TGI [16]: 11.1 nM | GI50 [17]: 44.2 nM | TGI [17]: 1170 nM | GI50 [18]: < 10 nM | TGI [18]: 23.8 nM | GI50 [19]: 10.3 nM | TGI [19]: 50.7 nM | GI50 [20]: 44.6 nM | TGI [20]: 1760 nM | GI50 [21]: 11 nM | TGI [21]: 1270 nM | GI50 [22]: 42.4 nM | TGI [22]: 1790 nM | GI50 [23]: < 10 nM | TGI [23]: 13.7 nM | GI50 [24]: < 10 nM | TGI [24]: < 10 nM | GI50 [25]: < 10 nM | TGI [25]: < 10 nM | GI50 [26]: 151 nM | TGI [26]: 1750 nM | GI50 [27]: < 10 nM | TGI [27]: 28.2 nM | GI50 [28]: 66 nM | TGI [28]: 1100 nM | GI50 [29]: < 10 nM | TGI [29]: 1280 nM | GI50 [30]: < 10 nM | TGI [30]: < 10 nM | GI50 [31]: < 10 nM | TGI [31]: 145 nM | GI50 [32]: 222 nM | TGI [32]: 1120 nM | GI50 [33]: 38.9 nM | TGI [33]: 1710 nM | GI50 [34]: 18.1 nM | TGI [34]: 38.5 nM | GI50 [35]: 53.4 nM | TGI [35]: 2630 nM | GI50 [36]: < 10 nM | TGI [36]: 10.6 nM | GI50 [37]: 32.1 nM | TGI [37]: 1310 nM | GI50 [38]: 31.4 nM | TGI [38]: 1510 nM | GI50 [39]: 30.5 nM | TGI [39]: 159 nM | GI50 [40]: < 10 nM | TGI [40]: 26.7 nM | GI50 [41]: 87.6 nM | TGI [41]: 2120 nM | GI50 [42]: 14.7 nM | TGI [42]: 127 nM | GI50 [43]: 21.3 nM | TGI [43]: 176 nM | GI50 [44]: 232 nM | TGI [44]: 3340 nM | GI50 [45]: 96.8 nM | TGI [45]: 2970 nM | GI50 [46]: 71.4 nM | TGI [46]: 2100 nM | GI50 [47]: < 10 nM | TGI [47]: < 10 nM | GI50 [48]: < 10 nM | TGI [48]: 107 nM | GI50 [49]: 191 nM | TGI [49]: 897 nM | GI50 [50]: 66.6 nM | TGI [50]: 1390 nM | GI50 [51]: 40.8 nM | TGI [51]: 1420 nM | GI50 [52]: 1160 nM | TGI [52]: 2390 nM | GI50 [53]: 27.9 nM | TGI [53]: 1530 nM | GI50 [54]: 589 nM | TGI [54]: 1870 nM
